Among the data in patent US20260184706A1, “PHENYLSULFONAMIDE DERIVATIVES, PREPARATION METHOD THEREFOR, AND PHARMACEUTICAL COMPOSITION FOR PREVENTION OR TREATMENT OF CANCER CONTAINING SAME AS ACTIVE INGREDIENT” (Korea Research Institute of Chemical Technology, priority 2022, published 2026) are IC50 values, retold here.

Usually IC50 stands for the concentration needed to halve the response being measured.

Sequence of recombinant human GCN2 protein (Q9P2K8 whole entry): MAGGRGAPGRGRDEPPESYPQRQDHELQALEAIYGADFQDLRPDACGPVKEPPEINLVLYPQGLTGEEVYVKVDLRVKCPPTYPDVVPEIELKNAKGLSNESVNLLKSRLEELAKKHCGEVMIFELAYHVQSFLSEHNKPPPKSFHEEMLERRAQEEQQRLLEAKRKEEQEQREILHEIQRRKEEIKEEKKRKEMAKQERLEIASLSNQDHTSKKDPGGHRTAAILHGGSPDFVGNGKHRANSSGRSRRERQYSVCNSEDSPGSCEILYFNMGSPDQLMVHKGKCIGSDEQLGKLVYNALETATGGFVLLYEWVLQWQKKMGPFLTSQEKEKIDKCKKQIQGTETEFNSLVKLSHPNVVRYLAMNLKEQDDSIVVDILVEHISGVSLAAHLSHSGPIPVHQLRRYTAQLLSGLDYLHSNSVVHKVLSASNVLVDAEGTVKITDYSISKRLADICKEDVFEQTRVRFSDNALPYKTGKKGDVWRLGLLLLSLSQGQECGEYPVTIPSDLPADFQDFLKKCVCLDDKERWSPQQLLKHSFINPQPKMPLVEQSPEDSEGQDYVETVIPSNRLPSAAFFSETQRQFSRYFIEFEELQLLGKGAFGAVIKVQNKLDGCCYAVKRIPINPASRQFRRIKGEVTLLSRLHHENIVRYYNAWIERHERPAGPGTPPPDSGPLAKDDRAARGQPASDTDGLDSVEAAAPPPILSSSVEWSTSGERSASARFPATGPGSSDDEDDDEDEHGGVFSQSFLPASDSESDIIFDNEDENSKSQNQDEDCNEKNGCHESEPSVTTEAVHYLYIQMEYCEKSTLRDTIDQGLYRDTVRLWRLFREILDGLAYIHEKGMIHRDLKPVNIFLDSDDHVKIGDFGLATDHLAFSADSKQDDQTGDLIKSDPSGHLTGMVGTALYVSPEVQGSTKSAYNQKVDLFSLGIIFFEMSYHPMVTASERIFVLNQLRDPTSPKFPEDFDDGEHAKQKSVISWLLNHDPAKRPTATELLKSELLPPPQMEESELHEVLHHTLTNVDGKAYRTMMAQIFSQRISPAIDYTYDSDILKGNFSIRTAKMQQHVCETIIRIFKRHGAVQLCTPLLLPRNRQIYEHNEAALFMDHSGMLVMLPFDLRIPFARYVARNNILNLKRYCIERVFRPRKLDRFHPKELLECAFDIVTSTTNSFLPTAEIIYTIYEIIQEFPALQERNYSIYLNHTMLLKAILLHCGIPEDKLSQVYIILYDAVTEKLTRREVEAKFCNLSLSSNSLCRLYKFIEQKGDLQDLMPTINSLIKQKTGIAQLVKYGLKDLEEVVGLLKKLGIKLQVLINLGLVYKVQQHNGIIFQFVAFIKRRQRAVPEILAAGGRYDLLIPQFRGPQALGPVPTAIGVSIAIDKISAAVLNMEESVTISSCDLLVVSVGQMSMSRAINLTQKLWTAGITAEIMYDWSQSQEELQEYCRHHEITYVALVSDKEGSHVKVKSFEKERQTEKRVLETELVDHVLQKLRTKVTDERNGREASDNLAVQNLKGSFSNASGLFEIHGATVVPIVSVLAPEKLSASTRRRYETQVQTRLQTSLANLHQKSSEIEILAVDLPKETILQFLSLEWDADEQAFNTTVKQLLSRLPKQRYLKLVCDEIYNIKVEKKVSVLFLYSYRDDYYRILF

The test has as its target recombinant human GCN2 protein (Homo sapiens, UniProt Q9P2K8). Put plainly: General control nonderepressible 2 (GCN2) inhibitory capacity, 33P-ATP filter assay. It counts as biochemical. Particulars: recombinant human GCN2, 70 uM [gamma-33P-ATP], 40 minutes, room temperature. Here is the method: <Experimental Example 2> Evaluation of General Control Nonderepressible 2 (GCN2) Inhibitory Capacity
A recombinant human GCN2 protein was mixed with the compound in a reaction solution (20 mM Tris/HCl pH8.5, 0.2 mM EDTA, 0.1% Tween, 100 mM NaCl, 300 μM RSRSRSRSRSRSRSR, 10 mM Magnesium acetate, 70 uM [gamma-33P-ATP]) and reacted at room temperature for 40 minutes. Then, the reaction was terminated by adding phosphoric acid (0.5%) to the reaction mixture, and 10 ul of the reaction solution was dropped onto a P30 filter. The filter was washed four times in a 0.425% phosphoric acid solution for 4 minutes, then washed once more in methanol, dried, and the GCN2 activity was measured by scintillation counting. […] The compound was diluted by 1/3 from the highest concentration of 1 uM and treated with a total of 9 concentrations to evaluate the degree of inhibition.
Take `Cn1c(=O)n(-c2c(F)ccc(NS(=O)(=O)c3ccc(Cl)s3)c2F)c(=O)c2cnc(N)nc21` [Example 50, N-(3-(7-amino-1-methyl-2,4-dioxo-1,4-dihydropyrimido[4,5-d]pyrimidin-3(2H)-yl)-2,4-difluorophenyl)-5-chlorothiophene-2-sulfonamide]: the IC50 is less than 100 nM.
With `Nc1ncc2c(=O)n(-c3c(F)ccc(NS(=O)(=O)c4cc(Cl)ccc4Cl)c3F)ccc2n1` [Example 24, N-(3-(2-amino-5-oxopirido[4,3-d]pyrimidin-6(5H)-yl)-2,4-difluorophenyl)-2,5-dichlorobenzenesulfonamide] the figure was less than 100 nM.
The figure for `COc1ncc(Cl)cc1S(=O)(=O)Nc1ccc(F)c(-n2cc(Br)c3nc(N)ncc3c2=O)c1F` [Example 33, N-(3-(2-amino-8-bromo-5-oxopirido[4,3-d]pyrimidin-6(5H)-yl)-2,4-difluorophenyl)-5-chloro-2-methoxypyridine-3-sulfonamide] is more than 1000 nM; for `COc1ncc(Cl)cc1S(=O)(=O)Nc1ccc(F)c(-n2cc(C)c3nc(N)ncc3c2=O)c1F` [Example 21, N-(3-(2-amino-8-methyl-5-oxopirido[4,3-d]pyrimidin-6(5H)-yl)-2,4-difluorophenyl)-5-chloro-2-methoxypyridine-3-sulfonamide] it is less than 100 nM.
The figure for `Cc1nn(-c2c(F)ccc(NS(=O)(=O)c3cc(Cl)ccc3Cl)c2F)c(=O)c2cnc(N)nc12` [Example 34, N-(3-(2-amino-8-methyl-5-oxopyrimido[4,5-d]pyridazine-6(5H)-yl)-2,4-difluorophenyl)-2,5-dichlorobenzenesulfonamide] is less than 100 nM; for `Cc1nn(C)c(Cl)c1S(=O)(=O)Nc1ccc(F)c(-n2ccc3nc(N)ncc3c2=O)c1F` [Example 30, N-(3-(2-amino-5-oxopirido[4,3-d]pyrimidin-6(5H)-yl)-2,4-difluorophenyl)-5-chloro-1,3-dimethyl-1H-pyrazole-4-sulfonamide] it is 100 to 300 nM.
Regarding `Cn1cc(S(=O)(=O)Nc2ccc(F)c(-n3c(=O)c4cnc(N)nc4n(C)c3=O)c2F)cn1` [Example 56, N-(3-(7-amino-1-methyl-2,4-dioxo-1,4-dihydropyrimido[4,5-d]pyrimidin-3(2H)-yl)-2,4-difluorophenyl)-1-methyl-1H-pyrazole-4-sulfonamide], the IC50 was more than 1000 nM.
With `Cn1c(=O)n(-c2c(F)ccc(NS(=O)(=O)c3cc(C(F)(F)F)ccc3Cl)c2F)c(=O)c2cnc(N)nc21` [Example 49, N-(3-(7-amino-1-methyl-2,4-dioxo-1,2-dihydropyrimido[4,5-d]pyrimidin-3(4H)-yl)-2,4-difluorophenyl)-2-chloro-5-(trifluoromethyl)benzenesulfonamide] the figure was 100 to 300 nM; with `Cc1nn(-c2c(F)ccc(NS(=O)(=O)c3cn(C)nc3C(F)(F)F)c2F)c(=O)c2cnc(N)nc12` [Example 35, N-(3-(2-amino-8-methyl-5-oxopyrimido[4,5-d]pyridazine-6(5H)-yl)-2,4-difluorophenyl)-1-methyl-3-(trifluoromethyl)-1H-pyrazole-4-sulfonamide], more than 1000 nM; with `CNc1ncc2c(=O)n(-c3c(F)ccc(NS(=O)(=O)c4cc(Cl)cnc4OC)c3F)c(=O)n(C)c2n1` [Example 58, 5-chloro-N-(2,4-difluoro-3-(1-methyl-7-(methylamino)-2,4-dioxo-1,4-dihydropyrimido[4,5-d]pyrimidin-3(2H)-yl)phenyl)-2-methoxypyridine-3-sulfonamide], 100 to 300 nM.
With `Cc1nn(C)c(Cl)c1S(=O)(=O)Nc1ccc(F)c(N2CN(C3CC3)c3nc(N)ncc3C2=O)c1F` [Example 62, N-(3-(7-amino-1-cyclopropyl-4-oxo-1,4-dihydropyrimido[4,5-d]pyrimidin-3(2H)-yl)-2,4-difluorophenyl)-5-chloro-1,3-dimethyl-1H-pyrazole-4-sulfonamide] the figure was more than 1000 nM; with `Cn1c(=O)n(-c2c(F)ccc(NS(=O)(=O)c3cc(Cl)ccc3Cl)c2F)c(=O)c2cnc(N)nc21` [Example 42, N-(3-(7-amino-1-methyl-2,4-dioxo-1,4-dihydropyrimido[4,5-d]pyrimidin-3(2H)-yl)-2,4-difluorophenyl)-2,5-dichlorobenzenesulfonamide], 100 to 300 nM; with `COc1ncc(Cl)cc1S(=O)(=O)Nc1ccc(F)c(N2CN(C)c3nc(N)ncc3C2=O)c1F` [Example 40, N-(3-(7-amino-1-methyl-4-oxo-1,4-dihydropyrimido[4,5-d]pyrimidin-3(2H)-yl)-2,4-difluorophenyl)-5-chloro-2-methoxypyridine-3-sulfonamide], 100 to 300 nM.
For `Cc1ccc(Cl)cc1S(=O)(=O)Nc1ccc(F)c(-n2c(=O)c3cnc(N)nc3n(C)c2=O)c1F` [Example 52, N-(3-(7-amino-1-methyl-2,4-dioxo-1,4-dihydropyrimido[4,5-d]pyrimidin-3(2H)-yl)-2,4-difluorophenyl)-5-chloro-2-methylbenzenesulfonamide], the IC50 is less than 100 nM.
With `CN1C(=O)Cc2cc(S(=O)(=O)Nc3ccc(F)c(-n4c(=O)c5cnc(N)nc5n(C)c4=O)c3F)ccc21` [Example 53, N-(3-(7-amino-1-methyl-2,4-dioxo-1,4-dihydropyrimido[4,5-d]pyrimidin-3(2H)-yl)-2,4-difluorophenyl)-1-methyl-2-oxoindoline-5-sulfonamide] the figure was more than 1000 nM; with `Cc1nn(C)c(Cl)c1S(=O)(=O)Nc1ccc(F)c(-n2c(=O)c3cnc(N)nc3n(C3CC3)c2=O)c1F` [Example 66, N-(3-(7-amino-1-cyclopropyl-2,4-dioxo-1,4-dihydropyrimido[4,5-d]pyrimidin-3(2H)-yl)-2,4-difluorophenyl)-5-chloro-1,3-dimethyl-1H-pyrazole-4-sulfonamide], 300 to 1000 nM; with `COc1ncc(C#N)cc1S(=O)(=O)Nc1ccc(F)c(-n2c(=O)c3cnc(N)nc3n(C)c2=O)c1F` [Example 47, N-(3-(7-amino-1-methyl-2,4-dioxo-1,4-dihydropyrimido[4,5-d]pyrimidin-3(2H)-yl)-2,4-difluorophenyl)-5-cyano-2-methoxypyridine-3-sulfonamide], less than 100 nM.
On to `CN1CN(c2c(F)ccc(NS(=O)(=O)c3cc(Cl)ccc3Cl)c2F)C(=O)c2cnc(N)nc21` [Example 39, N-(3-(7-amino-1-methyl-4-oxo-1,4-dihydropyrimido[4,5-d]pyrimidin-3(2H)-yl)-2,4-difluorophenyl)-2,5-dichlorobenzenesulfonamide], for which the IC50 was in the range of 100 to 300 nM.
As for `Cn1c(=O)n(-c2c(F)ccc(NS(=O)(=O)c3ccc(Cl)cc3Cl)c2F)c(=O)c2cnc(N)nc21` [Example 55, N-(3-(7-amino-1-methyl-2,4-dioxo-1,2-dihydropyrimido[4,5-d]pyrimidin-3(4H)-yl)-2,4-difluorophenyl)-2,4-dichlorobenzenesulfonamide], the IC50 lay in the range of 100 to 300 nM.
With `Nc1ncc2c(n1)N(C1CC1)CN(c1c(F)ccc(NS(=O)(=O)c3cc(Cl)ccc3Cl)c1F)C2=O` [Example 59, N-(3-(7-amino-1-cyclopropyl-4-oxo-1,4-dihydropyrimido[4,5-d]pyrimidin-3(2H)-yl)-2,4-difluorophenyl)-2,5-dichlorobenzenesulfonamide] the figure was 100 to 300 nM; with `Nc1ncc2c(=O)n(-c3c(F)ccc(NS(=O)(=O)c4ccc(Cl)s4)c3F)ccc2n1` [Example 31, N-(3-(2-amino-5-oxopirido[4,3-d]pyrimidin-6(5H)-yl)-2,4-difluorophenyl)-5-chlorothiophene-2-sulfonamide], 100 to 300 nM.
With `COc1ncc(Cl)cc1S(=O)(=O)Nc1ccc(F)c(N2CN(C3CC3)c3nc(N)ncc3C2=O)c1F` [Example 60, N-(3-(7-amino-1-cyclopropyl-4-oxo-1,4-dihydropyrimido[4,5-d]pyrimidin-3(2H)-yl)-2,4-difluorophenyl)-5-chloro-2-methoxypyridine-3-sulfonamide] the figure was 100 to 300 nM.
With `CN1CN(c2c(F)ccc(NS(=O)(=O)c3cccc4ccccc34)c2F)C(=O)c2cnc(N)nc21` [Example 41, N-(3-(7-amino-1-methyl-4-oxo-1,4-dihydropyrimido[4,5-d]pyrimidin-3(2H)-yl)-2,4-difluorophenyl)naphthalene-1-sulfonamide] the figure was 100 to 300 nM.
As to `Cn1c(=O)n(-c2c(F)ccc(NS(=O)(=O)c3cc(F)ccc3F)c2F)c(=O)c2cnc(N)nc21` [Example 54, N-(3-(7-amino-1-methyl-2,4-dioxo-1,4-dihydropyrimido[4,5-d]pyrimidin-3(2H)-yl)-2,4-difluorophenyl)-2,5-difluorobenzenesulfonamide], the IC50 lay in the range of 100 to 300 nM.
With `Nc1ncc2c(n1)N(C1CC1)CN(c1c(F)ccc(NS(=O)(=O)c3cccc4ccccc34)c1F)C2=O` [Example 61, N-(3-(7-amino-1-cyclopropyl-4-oxo-1,4-dihydropyrimido[4,5-d]pyrimidin-3(2H)-yl)-2,4-difluorophenyl)naphthalene-1-sulfonamide] the figure was 100 to 300 nM; with `Cc1nn(-c2c(F)ccc(NS(=O)(=O)c3cc(Cl)cc(CO)c3Cl)c2F)c(=O)c2cnc(N)nc12` [Example 37, N-(3-(2-amino-8-methyl-5-oxopyrimido[4,5-d]pyridazine-6(5H)-yl)-2,4-difluorophenyl)-2,5-dichloro-3-(hydroxymethyl)benzene sulfonamide], more than 1000 nM; with `COc1ncc(Cl)cc1S(=O)(=O)Nc1ccc(F)c(-n2cc(CO)c3nc(N)ncc3c2=O)c1F` [Example 23, N-(3-(2-amino-8-hydroxymethyl)-5-oxopirido[4,3-d]pyrimidin-6(5H)-2,4-difluorophenyl)-5-chloro-2-methoxypyridine-3-sulfonamide], 100 to 300 nM.
